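Tested at 5 concentrations; 48 h exposure; 96-well plates; endpoints linearly interpolated, else capped at highest concentration. The concentration for full growth arrest is given as TGI.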

For 11 compounds, TGI results are on record in PubChem BioAssay (NCI).

Among the test systems are M14 melanoma; MCF7 breast; MDA-MB-231 breast; HCT-116 colon; CCRF-CEM leukemia; BT-549 breast; UACC-257 melanoma; SF-268 CNS; HCC-2998 colon; EKVX NSCLC.
Assay in all cases: NCI anticancer screen, dose series, 48 h

Consider `CC(C)(C)OC(=O)NCCCNC1(c2cc3ccccc3s2)CCCCC1`, for which the TGI came to 25 µM in the assay on M14 melanoma; 30.6 µM in the assay with MCF7 breast; 40.1 µM in the assay on MDA-MB-231 breast; 24.8 µM in the assay on HCT-116 colon; 40.3 µM with CCRF-CEM leukemia; 27 µM with BT-549 breast. The TGI in the assay on UACC-257 melanoma was 30.8 µM; in the assay on SF-268 CNS, 33.8 µM; with HCC-2998 colon, 14.3 µM; in the assay with EKVX NSCLC, 28.6 µM.
As for `C=CCOc1ccc(C2(O)c3ccccc3C3=NCCCN32)cc1` (stereo not given), the TGI is 35.1 µM in the assay on M14 melanoma; over 100 µM with MCF7 breast; over 100 µM in the assay on MDA-MB-231 breast; over 100 µM in the assay with HCT-116 colon; over 100 µM with CCRF-CEM leukemia; over 100 µM in the assay on BT-549 breast. The TGI is 52.7 µM in the assay on UACC-257 melanoma, over 100 µM in the assay with SF-268 CNS, 43.3 µM in the assay on HCC-2998 colon and over 100 µM in the assay with EKVX NSCLC.
For `CC(=O)O[C@H]1CC[C@@]2(C)C(=CC[C@H]3[C@@H]4C[C@H](N5CCOCC5)[C@H](OC(C)=O)[C@@]4(C)CC[C@@H]32)C1`, the TGI with M14 melanoma, with MCF7 breast, with MDA-MB-231 breast, with HCT-116 colon, in the assay with CCRF-CEM leukemia and in the assay with BT-549 breast was over 100 µM in each case. The TGI in the assay with UACC-257 melanoma, in the assay with SF-268 CNS, in the assay with HCC-2998 colon and in the assay with EKVX NSCLC was over 100 µM throughout.
Turning to `Oc1cccc(-c2nc3cc(F)ccc3s2)c1`, the TGI with M14 melanoma amounted to 37.8 µM; with MCF7 breast, 51.4 µM; in the assay with MDA-MB-231 breast, 51.6 µM; in the assay with HCT-116 colon it was 53.8 µM; in the assay with CCRF-CEM leukemia, 73.8 µM; with BT-549 breast, 45.1 µM. In addition, the TGI in the assay with UACC-257 melanoma worked out at 34.3 µM; with SF-268 CNS, 65.6 µM; with HCC-2998 colon it was 23.2 µM; in the assay on EKVX NSCLC it was 32.5 µM.
Regarding `CCOC(=O)NC(Nc1cccc(C(F)(F)F)c1)(C(F)(F)F)C(F)(F)F`, the TGI with M14 melanoma, in the assay with MCF7 breast, with MDA-MB-231 breast, in the assay with HCT-116 colon, with CCRF-CEM leukemia and with BT-549 breast was over 100 µM throughout. In addition, the TGI with UACC-257 melanoma, in the assay with SF-268 CNS, in the assay with HCC-2998 colon and in the assay with EKVX NSCLC was over 100 µM each time.
With `CC(=O)NC1c2ccccc2C(C)(C)C12CCC1(CC2)OCCO1` (stereo not given), the TGI with M14 melanoma, in the assay on MCF7 breast, in the assay with MDA-MB-231 breast, with HCT-116 colon, in the assay on CCRF-CEM leukemia and in the assay on BT-549 breast was over 100 µM each time. Further, the TGI with UACC-257 melanoma, with SF-268 CNS, in the assay on HCC-2998 colon and in the assay with EKVX NSCLC was over 100 µM in each case.
Regarding `O=[N+]([O-])/C(C(Cl)=C(Cl)Cl)=C(\N1CCCCC1)n1cncn1`, the TGI is 33.7 µM in the assay on M14 melanoma; 50.6 µM with MCF7 breast; 30.1 µM with MDA-MB-231 breast; 73.6 µM with HCT-116 colon; over 100 µM in the assay on CCRF-CEM leukemia; 31.6 µM in the assay on BT-549 breast. In addition, the TGI in the assay on UACC-257 melanoma amounted to 36.6 µM; in the assay with SF-268 CNS, 26.9 µM; in the assay with HCC-2998 colon, 40.5 µM; in the assay on EKVX NSCLC, 31.6 µM.
For `COc1ccc2c(c1)CCN1CCc3ccccc3CC21` (stereo not given), the TGI in the assay on M14 melanoma was 36.6 µM; with MCF7 breast, over 100 µM; with MDA-MB-231 breast it was over 100 µM; in the assay on HCT-116 colon, over 100 µM; in the assay with CCRF-CEM leukemia it was over 100 µM; in the assay on BT-549 breast, over 100 µM. The TGI is over 100 µM in the assay on UACC-257 melanoma, over 100 µM with SF-268 CNS, 48.1 µM in the assay with HCC-2998 colon and over 100 µM in the assay on EKVX NSCLC.
Turning to `O=C1C(=Cc2ccccc2O)N=C(c2ccccc2)N1n1c(-c2ccccc2)nc2ccccc2c1=O`, the TGI with M14 melanoma is 57.1 µM; in the assay on MCF7 breast, 64.3 µM; in the assay with MDA-MB-231 breast, over 100 µM; in the assay on HCT-116 colon it was 89.8 µM; in the assay with CCRF-CEM leukemia it was 88.6 µM; in the assay on BT-549 breast, 89.9 µM. Also, the TGI is 69.1 µM with UACC-257 melanoma, 88.3 µM in the assay with SF-268 CNS, 89.2 µM in the assay on HCC-2998 colon and over 100 µM in the assay with EKVX NSCLC.
`Nc1[nH]nc2nc3ccc(C(F)(F)F)cc3nc12`: the TGI in the assay with M14 melanoma was over 100 µM; in the assay on MCF7 breast it was 31.1 µM; in the assay with MDA-MB-231 breast it was over 100 µM; with HCT-116 colon, over 100 µM; with CCRF-CEM leukemia, 37.9 µM; in the assay on BT-549 breast it was over 100 µM. Further, the TGI is 45.4 µM in the assay on UACC-257 melanoma, over 100 µM in the assay with SF-268 CNS, over 100 µM in the assay on HCC-2998 colon and over 100 µM in the assay with EKVX NSCLC.
With `O=c1oc2ccc([N+](=O)[O-])cc2c(Nc2ccc3c(c2)Oc2ccccc2O3)c1[N+](=O)[O-]`, the TGI in the assay with M14 melanoma is over 100 µM; in the assay with MCF7 breast it was 67.5 µM; in the assay with MDA-MB-231 breast, 37 µM; in the assay with HCT-116 colon it was over 100 µM; in the assay with CCRF-CEM leukemia, 84.7 µM; in the assay with BT-549 breast, over 100 µM. In addition, the TGI is 76.6 µM in the assay on UACC-257 melanoma, over 100 µM in the assay with SF-268 CNS, 66.4 µM with HCC-2998 colon and over 100 µM in the assay on EKVX NSCLC.
